Source: patent publication US20170119742A1, “MEDICAMENT FOR PREVENTING AND/OR TREATING STRESS DISEASES” (ONO PHARMACEUTICAL CO., LTD., priority 2014, published 2017)

Columns and labels:
[1] = biological target: T1, brain TSPO (Rattus norvegicus, UniProt P16257); experiment: Ex vivo brain TSPO occupancy in rats, [3H] PK11195 radiotracer (Biological example 1); settings: for receptor occupancy at 0.1 mg/kg / receptor occupancy at 0.3 mg/kg / receptor occupancy at 1 mg/kg / receptor occupancy at 3 mg/kg: rat, po, [3H] PK11195; for receptor occupancy at 0.1 mg/kg: 0.1 mg/kg oral; for receptor occupancy at 0.3 mg/kg: 0.3 mg/kg oral; for receptor occupancy at 1 mg/kg: 1 mg/kg oral; for receptor occupancy at 3 mg/kg: 3 mg/kg oral
T1 construct: measured by using brain (cerebral cortex and hippocampus) homogenates of the vehicle treated group and the compound of the present invention treated group; from tissue; host or cells: Wistar rat brain (cerebral cortex, hippocampus) homogenate
Procedure: Male Sic: Wistar rats (Japan SLC, Inc., at the time of use: 11 weeks old) was exposed to physical and mental stressors (Journal of Pharmacological Science, Vol. 104, p. 263-273, 2007). The vehicle (0.5 w/v % methylcellulose 400 cP solution) or the compound of the present invention (0.1, 0.3, 1 and 3 mg/kg) was orally administered. Two hours after the administration, the stressor load was started by putting the rat in a restraint stress cage (Natsume Seisakusho Co., Ltd.). The antistress effect was evaluated by measuring the stool weight which was excreted during the stressor load of 1 hour (n=12 in each group).
Next, brain TSPO occupancy of the compound of the present invention was measured by using brain (cerebral cortex and hippocampus) homogenates of the vehicle treated group and the compound of the present invention treated group, using [^3H] PK11195 as a radiotracer. PK11195 was dissolved in dimethyl sulfoxide (DMSO) to prepare a 4 mmol/L solution. After preparing an ethanol solution of 100 nmol/L [^3H] PK11195 (PerkinElmer, Inc.), the solution was diluted 50-fold with 50 mmol/L HEPES buffer (Sigma-Aldrich Co.). In the case of determining the total binding amount of the radiotracer, 50 mmol/L HEPES (99 μL) and DMSO (1 μL) were added to Nunc MiniSorp (trade name, 12×75 mm, Thermo Fisher Scientific Inc.). In the case of determining the nonspecific binding amount of the radiotracer, 4 mmol/L PK11195 (1 μL) was substituted for DMSO (1 μL). The brain homogenate (50 μL) derived from cerebral cortex or the hippocampus was added to the tube. Then [^3H] PK11195 (50 μL) (cerebral cortex: final concentration 0.4532 nmol/L, hippocampus: final concentration 0.4520 nmol/L) was added and stirred, and the mixture was incubated for 90 minutes at 4° C. After completion of the reaction, ice-cold 50 mmol/L HEPES (2 mL) was added to the tube, and then the mixture was suction filtered on a glass fiber filter (GF/B, Brandel Inc.) which pretreated with 0.3 w/v % polyethyleneimine (Sigma-Aldrich Co.), to collect the brain homogenate. After drying the glass fiber filter, the absorbing part of the brain homogenate was transferred to a liquid scintillation vial. ACS-II scintillation cocktail (7 mL) was added to the liquid scintillation vial and stirred, and the radioactivity was measured by liquid scintillation counter (TRI-CARB2900TR, PerkinElmer Life and Analytical Sciences Inc.). Specific binding amount (dpm) of [3H] PK11195 in each brain homogenate was set to a value obtained by subtracting the nonspecific binding amount (dpm) from the total binding amount (dpm). TSPO occupancy (%) in cerebral cortex and hippocampus, of the compound of the present invention treated group, were calculated according to the following equation.
TSPO Occupancy (%)=(1−X/Y)×100
X: Specific binding amount (dpm) in each brain homogenate Y: Average value (dpm) of specific binding amount in control group

[2] = tested on: olfactory bulb isolated rats; experiment: Antidepressant effect: excessive emotional reactivity in olfactory bulb isolated rats; assay type: in vivo; settings: rat, 0.3, 1 and 3 mg/kg oral once daily, before and after administration on day 7, p<0.01 Steel test
Source text: Male Crlj: WI rats (Charles River Laboratories Japan, Inc., at the time of surgery: 11 weeks old) were used to prepare an olfactory bulb isolated rat in accordance with Yamaguchi et al. method (Journal of the Pharmaceutical Society of Japan, Vol. 130, p. 175-183, 2007). The head of the anesthetized rat with pentobarbital sodium was fixed to brain stereotaxic apparatus (ASI Instruments Inc., NARISHIGE). After incising the scalp, holes to the left and right olfactory bulb region of the skull (7 mm forward and 1.8 mm laterally from bregma) were made with a dental drill. After aspirating and removing the left and right olfactory bulb by an aspirator coupled to an oral sonde which except for the tip, scalp was sutured. […] After 14 days of surgery, the excessive emotional reactivity was evaluated in accordance with the method of Gomita et al. (Journal of the Pharmaceutical Society of Japan, Vol. 82, p. 267-292, 1983). […]
A vehicle (physiological saline solution containing 0.5% Tween 80) or the compound of the present invention (0.3, 1 or 3 mg/kg) was orally administered to the olfactory bulb isolated rat repeatedly once daily for 8 days. […] On day 7, the excessive emotional reactivity was evaluated before and 1 hour after the administration.

receptor occupancy at 0.1 mg/kg ([1]; rat cerebral cortex): 11.8% | receptor occupancy at 0.3 mg/kg ([1]; rat cerebral cortex): 47.7% | receptor occupancy at 1 mg/kg ([1]; rat cerebral cortex): 83.8% | receptor occupancy at 3 mg/kg ([1]; rat cerebral cortex): 94.5% | receptor occupancy at 0.1 mg/kg ([1]; rat hippocampus): 25.7% | receptor occupancy at 0.3 mg/kg ([1]; rat hippocampus): 50.7% | receptor occupancy at 1 mg/kg ([1]; rat hippocampus): 86.3% | receptor occupancy at 3 mg/kg ([1]; rat hippocampus): 95.1% | brain TSPO occupancy required to exert antistress, antidepressant and antianxiety effect ([1]; rats, achieved by 0.3 to 3 mg/kg, from Biological examples 1 to 4): ≥ 50%
Compound: COc1cc(Cl)ccc1[C@H]1c2[nH]c3cccc(F)c3c2C2(CC2)CN1C(C)=O [the compound of the present invention, (1S)-2-acetyl-1-(4-chloro-2-methoxyphenyl)-5-fluoro-1,2,3,9-tetrahydrospiro[β-carboline-4,1′-cyclopropane]]
excessive emotional score compared with the vehicle control group [2]: significantly lower
